Columns and labels:
[1] = biological target: Potassium voltage-gated channel subfamily A member 3 (Homo sapiens, UniProt P22001); assay: Inhibition of Kv1.3 expressed in mouse L929 cells exposed to depolarizing step pulses from -80 mV to +40 mV by whole cell patch clamp method; type: cell-based
[2] = Lipophilicity, logP of the compound; type: physicochemical; conditions: octanol/water

Sequence of Potassium voltage-gated channel subfamily A member 3 (P22001 whole entry): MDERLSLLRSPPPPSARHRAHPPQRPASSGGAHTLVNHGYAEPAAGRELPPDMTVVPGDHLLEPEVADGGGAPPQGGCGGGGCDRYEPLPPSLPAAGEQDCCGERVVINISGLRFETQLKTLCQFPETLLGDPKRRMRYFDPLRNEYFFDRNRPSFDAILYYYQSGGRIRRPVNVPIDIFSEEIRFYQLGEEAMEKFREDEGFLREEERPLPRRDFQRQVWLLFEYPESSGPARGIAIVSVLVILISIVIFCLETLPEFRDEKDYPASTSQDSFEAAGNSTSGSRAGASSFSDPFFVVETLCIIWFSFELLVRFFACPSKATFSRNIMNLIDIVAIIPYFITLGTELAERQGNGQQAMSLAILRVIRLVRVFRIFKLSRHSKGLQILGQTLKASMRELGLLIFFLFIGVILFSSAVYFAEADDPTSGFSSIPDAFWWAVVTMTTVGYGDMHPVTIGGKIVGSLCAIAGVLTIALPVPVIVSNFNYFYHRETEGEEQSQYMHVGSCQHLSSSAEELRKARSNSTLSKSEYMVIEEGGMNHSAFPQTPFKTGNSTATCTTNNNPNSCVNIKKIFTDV

| Structure (SMILES) | IC50 [1] [µM] | logP [2] |
| --- | --- | --- |
| N#CC(CCN1CCC(O)CC1)(c1ccccc1)c1ccccc1 | 0.75 | – |
| CC1CCN(CCC(C#N)(c2ccccc2)c2ccccc2)CC1 | 5.8 | – |
| N#CC(CCN1CCCC(O)C1)(c1ccccc1)c1ccccc1 (stereo not given) | > 100 | – |
| N#CC(CCN1CCN(Cc2ccccc2)CC1)(c1ccccc1)c1ccccc1 | 1.27 | – |
| OC1CCN(CCCc2ccccc2)CC1 | > 100 | – |
| N#CC(CCN1CCCCC1)(c1ccccc1)c1ccccc1 | 20.5 | – |
| CC(C)(C)OC(=O)NC1CCN(CCC(C#N)(c2ccccc2)c2ccccc2)CC1 | 25 | – |
| N#CC(CCN1CCN(c2ccccc2)CC1)(c1ccccc1)c1ccccc1 | 1.86 | – |
| N#CC(CCN1CCC(c2ccccc2)CC1)(c1ccccc1)c1ccccc1 | 2.61 | – |
| COC(=O)C1(c2ccccc2)CCN(CCC(C#N)(c2ccccc2)c2ccccc2)CC1 | 2.52 | – |
| N#CC(CCN1CC=C(c2ccccc2)CC1)(c1ccccc1)c1ccccc1 | 4.2 | – |
| COC1CCN(CCC(C#N)(c2ccccc2)c2ccccc2)CC1 | > 100 | – |
| CCOC(=O)C1(c2ccccc2)CCN(CCC(c2ccccc2)c2ccccc2)CC1 | 0.9 | – |
| N#CC(CCN1CCC(O)(c2ccccc2)CC1)(c1ccccc1)c1ccccc1 | 1.7 | – |
| CCOC(=O)C1(c2ccccc2)CCN(CCCc2ccccc2)CC1 | 0.8 | – |
| CCOC(=O)C1(c2ccccc2)CCN(CCC(C#N)(c2ccccc2)c2ccccc2)CC1 [DIPHENOXYLATE] | 5 | – |
| OC1CCN(CCC(c2ccccc2)c2ccccc2)CC1 | 75 | – |
| N#CC(CCN1CCC(N)CC1)(c1ccccc1)c1ccccc1 | > 100 | – |
| O=c1ccc2c(OCCCCOc3ccccc3)c3ccoc3cc2o1 | – | 4.03 |
| CCOC(=O)C1CCN(CCC(C#N)(c2ccccc2)c2ccccc2)CC1 | 230 | – |
